The values that follow come from a melting point compilation (Tetko et al.; mined from patent text by program, amines drawn as free bases though some values may be those of a salt).

As for `OC(CC1CCN(Cc2ccccc2)CC1)c1ccc(F)cc1` (configuration not stated), the melting point lay in the range of 84 to 86 °C.
The value for `CCCS(=O)c1csc(C(=O)OC)c1S(N)(=O)=O` (configuration not stated) was 131 to 144 °C; that for `CSc1ccc(C(=O)NCc2ccc3c(c2)C(=O)N(C2(C)CCC(=O)NC2=O)C3=O)cc1` (configuration not stated) was 218 to 220 °C.
`CCOCc1nc2c(N)nc3cc(N4CCOC4=O)cnc3c2n1CC(C)C` yielded a melting point of 174 to 176 °C.
The value for `CCOC(=O)c1nc2cc(Br)ccc2c(O)c1C(=O)OCC` was 234 °C; that for `COC(=O)C(=NO)c1ccccc1` was 151 to 153 °C; that for `CC(=N)NS(=O)(=O)c1cc(I)cc(C#N)c1` was 177 to 178 °C.
`COc1ccc(CN2Cc3cc(N(C)C)ccc3N=C2N)cc1` displayed a melting point of 175 to 180 °C.
In turn, `COc1ccc2[nH]cc(CCC(=O)Nc3ccccc3C(=O)O)c2c1` showed a melting point of 168 to 170 °C.
The value for `CCn1c2c(c3ccccc31)=CC(=C1c3ccccc3-c3ccccc31)CC=2` was 172 °C.
Consider `CCCCCCc1ccc(/C(Cl)=C/c2ccc(Br)cc2)cc1`, for which the melting point came to 52 °C.
The value for `O=C(O)CCC12CC(c3ccccc31)c1ccccc12` was 185 to 189 °C; that for `CC(=O)OC1COC(n2c(Br)nc3cc(Cl)c(Cl)cc32)C(OC(C)=O)C1OC(C)=O` (configuration not stated) was 100 to 110 °C.
Next, `CNc1nc(N)c(SC)c(Cl)n1`: 205 °C.
The value for `Cc1nc(-c2ccccc2)c(NC(=O)Nc2ccccc2)s1` was 199 to 201 °C; that for `CS(=O)(=O)N1Cc2nc3c(N)nc4ccccc4c3n2CC(O)C1` (configuration not stated) was 282 to 283 °C; that for `COc1ccc(Sc2ccccc2CCl)cc1` was 76 to 78 °C.
Regarding `CCOc1ccc2[nH]c(=O)n(C3CCCCCC3)c2c1`, the melting point is 204 °C.
For the compound `CC#CCOc1ccc(SC(C(=O)NO)c2ccc3ccccc3c2)cc1` (configuration not stated), the melting point was determined as 148 °C.
As for `CSc1ncc(Oc2ccc(Cl)cc2)c(=O)[nH]1`, the melting point lay within 232 to 233 °C.
The compound `CC(=O)Nc1nc(CCc2ccc(CC#N)cc2)cs1` returned a melting point of 160 to 161 °C.
Regarding `CCOC(=O)C=C(C)Nc1ccccc1N`, the melting point fell in the range of 73 to 81 °C.
Next, `CCOP(=O)(OCC)c1ccc(Oc2ccccc2[N+](=O)[O-])cc1`: 150 °C; `O=CN1CC2CCCc3cccc1c32` (configuration not stated): 93 to 94 °C.
For `CN1C(C2CCCCC2)Nc2ccc(S(=O)(=O)N3CCOCC3)cc2S1(=O)=O` (configuration not stated), the melting point fell in the range of 243 to 245 °C.
`Cn1c(=NC(=S)Nc2ccccc2)n(C)c2ccccc21` gave a melting point of 245 °C.
In turn, `O=C(O)Cc1cc2c(c(-c3ccccc3)c1)NC(C(F)(F)F)CC2` (configuration not stated) came in with a melting point of 131 to 132 °C.
The compound `Cc1ccc(S(=O)(=O)OC[C@H]2COCCO2)cc1` gave a melting point of 53 to 54 °C.
On to `C=CC(=O)OCc1c(Br)c(Br)c(Br)c(COC(=O)C=C)c1Br`, for which the melting point lay in the range of 105 to 108 °C.
Next, `CCOC(=O)c1nc(NCC(c2ccccc2)c2ccccc2)c2ncn([C@@H]3O[C@H](CO)[C@H]4OC(C)(C)O[C@H]43)c2n1`: 126 to 128 °C; `COc1ccc(/C=C/c2ccc3c(=O)[nH]ncc3c2)cc1`: 280 to 289 °C; `O=C(CNC(=O)c1ccccc1)c1ccsc1`: 118 to 119 °C.
Next, `CC(O)(c1nc2cc(S(=O)(=O)c3ccccc3)ccc2s1)C(F)(F)F` (configuration not stated): 126 to 128 °C; `CCc1cn(C2CC(O)C(CNC(=O)c3ccc4ccccc4c3)O2)c(=O)[nH]c1=O` (configuration not stated): 242 to 244 °C; `CCCc1nc(C(=O)CC)c(C#N)n1C(c1ccccc1)(c1ccccc1)c1ccccc1`: 96 °C.
`Cc1ccc2c(C(=O)O)csc2c1` yielded a melting point of 205 to 209 °C.
On to `COc1cc(C(=O)Nc2ccc(N3CCOCC3)cc2C(C)=O)ccc1OCc1ccccc1`, for which the melting point was 192 to 194 °C.
On to `CNc1cc(F)ccc1C(=O)O`, for which the melting point was in the range of 180 to 181 °C.
Next, `C=C(C)C(=O)N1CCC(C(=O)O)CC1`: 90 to 93 °C; `O=C(NC(=O)c1nnn(Cc2ccccc2)c1NC(=O)c1ccccc1)c1ccccc1`: 171 to 173 °C.
Next, `COc1cc(CNC(=O)c2ccc3c(c2)c(=O)n(Cc2ccccc2)c(=O)n3C)ccc1O`: 183 °C; `C=CCSc1ccc(OCc2ccccc2)nn1`: 56 to 58 °C; `CC(=O)c1ccccc1NC(=O)Cc1ccccc1`: 78 °C.
`O=C(Nc1ccc2[nH]c(C(F)(F)F)nc2c1)NC12CC3CC(CC(C3)C1)C2` registered a melting point of 189 to 192 °C.
Next, `CC(C)(C)c1cccc(S(=O)(=O)n2c(CBr)cc3cc(C(F)(F)F)ccc32)c1`: 80 °C; `CN(C)c1ccc(C2OCCN2CCNc2ccc(NCCN3CCOC3c3ccc(N(C)C)cc3)c3c2C(=O)c2c(O)ccc(O)c2C3=O)cc1` (configuration not stated): 150 to 154 °C.
The value for `CC(O)c1cc(Br)c(N)c(CN(C)C)c1` (configuration not stated) was 69 to 72 °C; that for `NS(=O)(=O)c1cccc(-c2cn(-c3cc(-c4ccc(C(F)(F)F)cc4)cc(C(F)(F)F)n3)cn2)c1` was greater than 250 °C; that for `COc1ccc(-c2[nH]nc3c2C(=O)c2c(NC(=O)NNC(=O)c4ccccc4N)cccc2-3)cc1` was 257 °C.
Next, `Oc1ccc(Nc2ccn(-c3ccccc3)n2)cc1`: 147 to 148 °C; `CNC(=O)ON=C1SCOC1COC` (configuration not stated): 105 to 106 °C; `CC(C)C[C@H](NC(=O)c1ccc2c(c1)Nc1ccccc1S2)C(=O)N[C@H]1CCOC1OC(=O)c1ccccc1` (some centres not stated): 193 to 195 °C.
With `OC1(Cc2nc[nH]n2)CCCc2ccccc21` (configuration not stated), the melting point is 105 to 108 °C.
Consider `O=C1c2ccccc2C(=O)N1C(O)C1OC(n2ccc(=O)[nH]c2=O)CC1O` (configuration not stated), for which the melting point fell in the range of 241 to 242 °C.
Compound `CC(=O)N1CCC(n2ccc(-c3ccc(F)cc3)c2-c2ccncc2)CC1` displayed a melting point of 223 to 224 °C.
Turning to `Cc1ccc(Cn2nnc(C(N)=O)c2N)cc1`, the melting point lay in the range of 223 to 225 °C.
For `CS(=O)(=O)c1ccc(-c2cnn(-c3ccc(F)c(F)c3)c(=O)c2OCCC2C=CCC2)cc1` (configuration not stated), the melting point lay in the range of 126 to 127 °C.
The value for `C(=C(c1ccccc1)N1CCCCC1)C1=NCCC1` was 123 to 124 °C; that for `CCCCNC(=O)Oc1ccc(C(O)(CC)c2cccc(C(F)(F)F)c2)c(OC(=O)NCCCC)c1` (configuration not stated) was 110 to 111 °C; that for `Cc1cc(C)cc(Oc2c(C=O)c(C)[nH]c(=O)c2I)c1` was greater than 260 °C.
The value for `N#CCNCNCC#N` was 83 to 85 °C.
Next, `CC(C)=CCOC(C)C1CC=C2C3=C(CCC21C)C1(C)CCC(OC(=O)CCC(=O)O)C(C)(C)C1CC3` (configuration not stated): 60 to 67 °C; `O=C(O)CNC(=O)N1CCc2cc(S(=O)(=O)N3CCN(c4cccc(Cl)c4)CC3)ccc21`: 214 °C.
As for `NC(=O)Nc1ncc(-c2ccncc2)cn1`, the melting point was greater than 250 °C.
Next, `COc1c2occc2c(OC)c2c(=O)cc(N3CCC(C4CCN(c5cc(=O)c6c(OC)c7ccoc7c(OC)c6o5)CC4)CC3)oc12`: 126 to 129 °C; `CC1CCN(Cc2cccc(OCCCNS(=O)(=O)CCNc3ccc(Cl)c(Cl)c3)c2)CC1`: 130 to 135 °C.
The value for `CN(C)C(=O)COc1cc(Cl)ccc1C(=O)O` was 141 to 142 °C; that for `C=CCC1(C(O)C(c2cccc(Cl)c2)n2ccnc2)CC2C=CC1C2` (configuration not stated) was 134 to 135 °C; that for `Fc1ccc(Br)nc1Br` was 47 to 48 °C.
Next, `CCOc1ccccc1C=C1CCc2c1nc1ccc(C(=O)O)cn1c2=O`: 328 to 332 °C; `Cc1ncc(Cl)c(C(=O)Nc2ccn3cc(-c4ccccc4)nc3n2)n1`: greater than 250 °C; `Cc1ccc(S(=O)(=O)N2CC2)cc1`: 51 to 52 °C.
`FC(F)(F)c1ccc(/C=C/C2=CCN(Cc3c[nH]c4ncccc34)CC2)cc1` displayed a melting point of 203 to 205 °C.
In the case of `c1ccc(CSc2cn3ccsc3n2)cc1`, the melting point is 76 to 77 °C.
In turn, `ClCc1coc(-c2ccc(Cl)o2)n1` returned a melting point of 107 to 108 °C.
The value for `O=C1NC(SCC#CCc2ccccc2)C1NC(c1ccccc1)(c1ccccc1)c1ccccc1` (configuration not stated) was 145 to 146 °C; that for `COC(=O)NC1CCc2ccc(Cl)cc2C1=O` (configuration not stated) was 126 to 127 °C.
Next, `CC1CN2C(=NC1=O)CCC2C` (configuration not stated): 150 to 152 °C; `CC1SC(=O)NN=C1c1ccc2c(c1)C(=NNC(N)=S)C(=O)N2` (configuration not stated): 300 °C; `Cc1cc2c(c(NC(C(N)=O)c3c(Cl)cccc3Cl)c1)C(=O)CC2` (configuration not stated): 250 °C.
For the compound `CSc1nc(O)c(-c2ccccc2F)c(O)n1`, the melting point was greater than 240 °C.
The compound `CC1CCN(c2ccc([N+](=O)[O-])cc2C(=O)c2ccc(Br)cc2)CC1` had a melting point of 142 °C.
`CCO/N=C(/CC)c1ccc(Cl)c2nc3n(c12)CCCN3c1ccc(Cl)cc1Cl` returned a melting point of 140 to 141 °C.
In the case of `CN(CC(=O)O)C(=S)c1cc(-c2ccccc2)nc2ccccc12`, the melting point is 228 to 230 °C.
Next, `O=c1[nH]c2c(Cl)cccc2c(=O)o1`: 225 to 230 °C; `CC(=O)OCC1OC(SCC=Cc2ccccc2)C(OC(C)=O)C(OC(C)=O)C1OC(C)=O` (configuration not stated): 113 to 114 °C.
The value for `Cc1c(NC(=O)c2ccc(-c3ccc(Cl)cc3)c(F)c2)ccc2cc(CN3CCCC3)cnc12` was 190 to 192 °C.
Next, `CCOC(=O)c1cnn(CC(O)c2ccccc2)c1NC(=S)NC(=O)c1ccccc1` (configuration not stated): 171 to 172 °C.
`C=CCNC(=O)C1CCc2cc(Oc3ccccc3)ccc2O1` (configuration not stated): the melting point lay in the range of 104 to 106 °C.
On to `CCn1c(C(C)NS(=O)(=O)c2ccc(Cl)c(Cl)c2)cnc1Oc1ccc(C)cc1` (configuration not stated), for which the melting point lay in the range of 142 to 144 °C.
The compound `COC(=O)c1ccc(OC)c(C=O)c1O` showed a melting point of 123 to 124 °C.
Next, `COc1ccc(CN(C)C2CCN(c3ccc([N+](=O)[O-])cc3)CC2)cc1`: 144 to 145 °C.
